The structures appear in SMILES notation. Where two headings read alike, the source gives them in different places.

Experiment in all cases: Kinase activity test (ReactionBiology), % enzyme activity relative to DMSO
Assay type in all cases: biochemical

The target in experiment [1] is T1, DAPK1 (Homo sapiens, UniProt P53355).
T1 construct: purchased ReactionBiology
As to conditions: DAPK1.

Experiment [2] concerns the target VEGFR2 (Homo sapiens, UniProt P35968). Set-up: purchased ReactionBiology. To be noted: VEGFR2.
The target of experiment [3] is T2, CK1d (Homo sapiens, UniProt P48730).
T2 construct: purchased ReactionBiology
As to conditions: CK1d.

Experiment [4] deals with T3, EPHB4 (Homo sapiens, UniProt P54760).
T3 construct: purchased ReactionBiology
T3 sequence (P54760 16-987): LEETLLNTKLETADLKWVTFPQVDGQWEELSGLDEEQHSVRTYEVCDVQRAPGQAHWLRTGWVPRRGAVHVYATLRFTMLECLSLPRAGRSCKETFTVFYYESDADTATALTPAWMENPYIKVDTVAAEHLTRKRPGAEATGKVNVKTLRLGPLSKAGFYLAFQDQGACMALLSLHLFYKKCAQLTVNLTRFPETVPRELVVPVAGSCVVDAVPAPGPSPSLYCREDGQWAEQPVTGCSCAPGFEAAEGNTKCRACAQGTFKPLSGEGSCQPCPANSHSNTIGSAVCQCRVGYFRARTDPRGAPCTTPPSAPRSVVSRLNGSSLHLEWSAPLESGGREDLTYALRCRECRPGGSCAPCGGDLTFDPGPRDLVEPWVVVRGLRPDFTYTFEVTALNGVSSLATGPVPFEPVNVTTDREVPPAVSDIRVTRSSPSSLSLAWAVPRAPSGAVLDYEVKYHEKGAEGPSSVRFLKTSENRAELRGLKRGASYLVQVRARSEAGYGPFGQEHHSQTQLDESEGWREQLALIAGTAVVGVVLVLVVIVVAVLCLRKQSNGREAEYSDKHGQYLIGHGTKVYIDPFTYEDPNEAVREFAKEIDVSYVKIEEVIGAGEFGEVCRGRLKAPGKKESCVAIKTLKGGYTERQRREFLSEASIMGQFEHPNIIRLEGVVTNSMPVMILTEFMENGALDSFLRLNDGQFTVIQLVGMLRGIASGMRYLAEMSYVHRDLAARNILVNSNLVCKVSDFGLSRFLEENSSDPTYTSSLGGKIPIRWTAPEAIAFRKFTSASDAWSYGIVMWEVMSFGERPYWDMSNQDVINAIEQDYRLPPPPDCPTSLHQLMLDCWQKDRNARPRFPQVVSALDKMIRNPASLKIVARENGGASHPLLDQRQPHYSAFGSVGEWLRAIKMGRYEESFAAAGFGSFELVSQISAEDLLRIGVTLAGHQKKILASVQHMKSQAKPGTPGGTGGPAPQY
As to conditions: EPHB4.

In experiment [5] the target is T4, NEK2 (Homo sapiens, UniProt P51955).
T4 construct: purchased ReactionBiology
T4 sequence (P51955 1-445): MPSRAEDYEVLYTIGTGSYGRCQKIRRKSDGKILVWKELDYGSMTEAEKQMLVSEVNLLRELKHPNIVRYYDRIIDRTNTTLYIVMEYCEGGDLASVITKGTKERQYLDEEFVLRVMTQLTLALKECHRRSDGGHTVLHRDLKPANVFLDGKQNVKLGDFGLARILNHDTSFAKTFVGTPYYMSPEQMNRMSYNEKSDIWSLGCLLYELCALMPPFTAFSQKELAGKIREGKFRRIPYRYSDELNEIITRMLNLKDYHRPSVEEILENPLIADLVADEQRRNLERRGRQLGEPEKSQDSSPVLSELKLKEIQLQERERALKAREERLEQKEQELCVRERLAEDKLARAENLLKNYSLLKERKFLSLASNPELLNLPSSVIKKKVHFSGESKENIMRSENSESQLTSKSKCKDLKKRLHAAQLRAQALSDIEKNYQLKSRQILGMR
To be noted: NEK2.

Where [6] appears, read: 1 uM, Average, read-out: % Enzyme Activity (relative to DMSO controls), Average.
Where [7] appears, read: 1 uM, replicate Data 1, read-out: % Enzyme Activity (relative to DMSO controls), Data 1.
The mark [8] stands for this setting: 1 uM, replicate Data 2, read-out: % Enzyme Activity (relative to DMSO controls), Data 2.
Where [9] appears, read: 10 uM, Average, read-out: % Enzyme Activity (relative to DMSO controls), Average.
Where [10] appears, read: 10 uM, replicate Data 1, read-out: % Enzyme Activity (relative to DMSO controls), Data 1.
The mark [11] stands for this setting: 10 uM, replicate Data 2, read-out: % Enzyme Activity (relative to DMSO controls), Data 2.
[12] abbreviates: Average, read-out: % Enzyme Activity (relative to DMSO controls), Average.
The mark [13] stands for this setting: replicate Data 1, read-out: % Enzyme Activity (relative to DMSO controls), Data 1.
Where [14] appears, read: replicate Data 2, read-out: % Enzyme Activity (relative to DMSO controls), Data 2.

T2 sequence (P48730 whole entry): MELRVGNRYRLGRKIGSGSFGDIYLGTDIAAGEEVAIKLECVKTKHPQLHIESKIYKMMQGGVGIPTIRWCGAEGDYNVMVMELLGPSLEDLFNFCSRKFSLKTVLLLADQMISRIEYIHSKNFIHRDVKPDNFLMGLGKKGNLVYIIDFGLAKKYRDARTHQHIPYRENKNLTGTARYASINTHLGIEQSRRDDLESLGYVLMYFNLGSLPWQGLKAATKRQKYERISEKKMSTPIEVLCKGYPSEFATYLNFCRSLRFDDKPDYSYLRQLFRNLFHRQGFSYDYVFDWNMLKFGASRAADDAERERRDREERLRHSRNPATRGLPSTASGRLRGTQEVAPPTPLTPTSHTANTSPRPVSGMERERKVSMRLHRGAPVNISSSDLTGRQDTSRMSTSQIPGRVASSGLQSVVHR
T1 sequence (P53355 whole entry): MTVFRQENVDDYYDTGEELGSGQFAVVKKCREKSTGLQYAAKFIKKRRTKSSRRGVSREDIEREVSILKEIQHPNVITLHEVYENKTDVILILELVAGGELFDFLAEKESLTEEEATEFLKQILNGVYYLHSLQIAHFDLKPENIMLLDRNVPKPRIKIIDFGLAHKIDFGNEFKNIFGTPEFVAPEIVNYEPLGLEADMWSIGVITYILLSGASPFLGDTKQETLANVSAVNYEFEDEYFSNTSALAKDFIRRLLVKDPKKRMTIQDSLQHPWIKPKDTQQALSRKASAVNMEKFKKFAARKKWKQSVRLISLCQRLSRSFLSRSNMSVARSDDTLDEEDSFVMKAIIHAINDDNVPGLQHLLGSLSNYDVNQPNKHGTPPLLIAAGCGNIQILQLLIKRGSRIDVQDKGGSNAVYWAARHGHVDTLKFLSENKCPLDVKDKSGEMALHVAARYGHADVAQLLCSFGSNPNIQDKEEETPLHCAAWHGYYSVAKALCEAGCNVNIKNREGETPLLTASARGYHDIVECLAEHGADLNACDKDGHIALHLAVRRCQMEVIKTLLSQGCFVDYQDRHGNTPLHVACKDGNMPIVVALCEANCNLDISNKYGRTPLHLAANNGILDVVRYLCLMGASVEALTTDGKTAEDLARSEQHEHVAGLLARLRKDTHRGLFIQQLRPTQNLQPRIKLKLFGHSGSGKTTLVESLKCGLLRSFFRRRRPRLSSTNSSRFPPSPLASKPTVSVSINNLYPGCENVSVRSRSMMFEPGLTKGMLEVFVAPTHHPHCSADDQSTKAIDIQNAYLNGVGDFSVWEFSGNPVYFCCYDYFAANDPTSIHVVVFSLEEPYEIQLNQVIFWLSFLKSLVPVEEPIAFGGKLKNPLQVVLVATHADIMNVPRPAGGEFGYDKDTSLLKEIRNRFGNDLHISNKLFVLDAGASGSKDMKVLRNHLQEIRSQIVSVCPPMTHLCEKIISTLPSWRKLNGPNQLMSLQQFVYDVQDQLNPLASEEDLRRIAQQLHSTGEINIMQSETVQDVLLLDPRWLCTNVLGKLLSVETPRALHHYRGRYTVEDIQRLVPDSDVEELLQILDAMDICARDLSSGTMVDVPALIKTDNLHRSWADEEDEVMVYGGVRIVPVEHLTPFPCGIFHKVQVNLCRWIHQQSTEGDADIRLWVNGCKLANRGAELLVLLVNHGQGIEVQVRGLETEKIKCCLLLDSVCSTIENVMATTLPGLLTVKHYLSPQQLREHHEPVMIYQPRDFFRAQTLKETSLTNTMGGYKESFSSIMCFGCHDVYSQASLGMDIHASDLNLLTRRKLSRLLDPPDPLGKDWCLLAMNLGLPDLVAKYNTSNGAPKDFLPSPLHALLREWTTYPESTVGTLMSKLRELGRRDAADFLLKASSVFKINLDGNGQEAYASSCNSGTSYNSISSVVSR
Chain of VEGFR2 (P35968 20-1356): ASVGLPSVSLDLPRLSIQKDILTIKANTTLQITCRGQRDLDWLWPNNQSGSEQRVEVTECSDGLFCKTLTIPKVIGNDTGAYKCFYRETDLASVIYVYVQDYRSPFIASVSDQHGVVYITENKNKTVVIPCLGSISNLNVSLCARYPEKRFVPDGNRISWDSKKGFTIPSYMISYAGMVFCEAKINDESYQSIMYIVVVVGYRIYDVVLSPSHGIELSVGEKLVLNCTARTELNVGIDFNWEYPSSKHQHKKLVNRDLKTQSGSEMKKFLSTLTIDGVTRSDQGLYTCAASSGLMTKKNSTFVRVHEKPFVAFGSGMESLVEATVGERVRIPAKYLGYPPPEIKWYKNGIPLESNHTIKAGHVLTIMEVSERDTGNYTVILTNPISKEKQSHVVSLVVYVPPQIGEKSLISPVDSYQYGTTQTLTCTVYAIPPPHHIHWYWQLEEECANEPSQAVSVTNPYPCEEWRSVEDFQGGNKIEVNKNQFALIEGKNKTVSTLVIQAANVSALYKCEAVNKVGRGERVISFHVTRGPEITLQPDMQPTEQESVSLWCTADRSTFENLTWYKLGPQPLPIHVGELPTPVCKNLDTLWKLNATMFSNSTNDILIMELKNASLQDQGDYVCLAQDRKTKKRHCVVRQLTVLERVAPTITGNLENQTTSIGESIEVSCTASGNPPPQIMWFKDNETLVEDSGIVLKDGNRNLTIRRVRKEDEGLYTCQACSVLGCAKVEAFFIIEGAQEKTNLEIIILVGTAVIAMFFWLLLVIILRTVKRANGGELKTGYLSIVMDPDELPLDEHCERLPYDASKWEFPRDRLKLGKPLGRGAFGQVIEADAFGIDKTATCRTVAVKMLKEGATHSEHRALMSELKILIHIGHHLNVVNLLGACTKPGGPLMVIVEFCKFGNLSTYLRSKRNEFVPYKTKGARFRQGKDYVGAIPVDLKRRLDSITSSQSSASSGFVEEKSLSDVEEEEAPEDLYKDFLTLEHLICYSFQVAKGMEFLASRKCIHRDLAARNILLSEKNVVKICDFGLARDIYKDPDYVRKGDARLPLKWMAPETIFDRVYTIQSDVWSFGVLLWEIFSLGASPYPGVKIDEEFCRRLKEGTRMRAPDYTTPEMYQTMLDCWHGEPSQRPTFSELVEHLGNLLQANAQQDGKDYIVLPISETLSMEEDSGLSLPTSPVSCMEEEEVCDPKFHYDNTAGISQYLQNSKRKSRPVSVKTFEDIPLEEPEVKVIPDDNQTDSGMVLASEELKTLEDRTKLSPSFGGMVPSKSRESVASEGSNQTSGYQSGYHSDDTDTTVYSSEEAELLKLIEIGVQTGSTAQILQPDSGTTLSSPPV

In the case of `CC(=O)O[C@H]1C[C@@]2(C)[C@@H](C[C@@H](O)[C@H]3[C@@]4(C)CC[C@@H](O)[C@@H](C)[C@@H]4CC[C@@]32C)/C1=C(\CCC=C(C)C)C(=O)O` [Fusidic acid], the remaining activity at 1 µM in experiment [1] (setting [6]) is 96.4%; in experiment [1] (setting [7]) it was 102%; in experiment [1] (setting [8]) it was 90.5%; in experiment [2] (setting [6]), 109%; in experiment [2] (setting [7]), 110%; in experiment [2] (setting [8]) it was 107%. The remaining activity at 1 µM in experiment [3] (setting [6]) turned out to be 100%; in experiment [3] (setting [7]) it was 95.3%; in experiment [3] (setting [8]) it was 105%; in experiment [4] (setting [6]), 101%; in experiment [4] (setting [7]), 101%; in experiment [4] (setting [8]), 101%. Further, the remaining activity at 10 µM in experiment [1] (setting [9]) worked out at 93.7%; in experiment [1] (setting [10]) it was 93%; in experiment [1] (setting [11]), 94.5%; in experiment [2] (setting [9]), 101%; in experiment [2] (setting [10]), 96%; in experiment [2] (setting [11]), 105%. Further, the remaining activity at 10 µM was determined as 111% in experiment [3] (setting [12]); 113% in experiment [3] (setting [13]); 108% in experiment [3] (setting [14]); 92.3% in experiment [4] (setting [9]); 95.3% in experiment [4] (setting [10]); 89.3% in experiment [4] (setting [11]).
As to `O=C1Nc2ccc(Cl)cc2[C@@](C#CC2CC2)(C(F)(F)F)O1` [Efavirenz], the “% Enzyme Activity (relative to DMSO controls), Data 1” value is reported as 102.21% in experiment [2] (1 uM, replicate Data 1); 95.58% in experiment [2] (10 uM, replicate Data 1); 101.66% in experiment [3] (1 uM, replicate Data 1); 93.6% in experiment [4] (1 uM, replicate Data 1); 93.32% in experiment [4] (10 uM, replicate Data 1); 110.94% in experiment [5] (1 uM, replicate Data 1). For the same compound, the “% Enzyme Activity (relative to DMSO controls), Data 1” value in experiment [5] (10 uM, replicate Data 1) is 81.38%.
Regarding `O=C(O)c1ccccc1O` [Salicylic acid], the remaining activity at 1 µM in experiment [2] (setting [6]) was 96.6%; in experiment [2] (setting [7]) it was 94.4%; in experiment [2] (setting [8]) it was 98.7%; in experiment [3] (setting [6]) it was 105%; in experiment [3] (setting [7]), 107%; in experiment [3] (setting [8]) it was 103%. Further, the remaining activity at 1 µM is 101% in experiment [4] (setting [6]); 99.4% in experiment [4] (setting [7]); 102% in experiment [4] (setting [8]); 88.2% in experiment [5] (setting [6]); 88.1% in experiment [5] (setting [7]); 88.3% in experiment [5] (setting [8]). The remaining activity at 10 µM is 101% in experiment [2] (setting [9]); 103% in experiment [2] (setting [10]); 99.4% in experiment [2] (setting [11]); 109% in experiment [3] (setting [12]); 109% in experiment [3] (setting [13]); 110% in experiment [3] (setting [14]). In addition, the remaining activity at 10 µM was found to be 93.4% in experiment [4] (setting [9]); 93% in experiment [4] (setting [10]); 93.8% in experiment [4] (setting [11]); 102% in experiment [5] (setting [9]); 93.8% in experiment [5] (setting [10]); 109% in experiment [5] (setting [11]).
In the case of `Cc1cccc(C)c1OCC(=O)N[C@@H](Cc1ccccc1)[C@@H](O)C[C@H](Cc1ccccc1)NC(=O)[C@H](C(C)C)N1CCCNC1=O` [Lopinavir, reference compound], the remaining activity at 1 µM in experiment [1] (setting [6]) worked out at 90.4%; in experiment [1] (setting [7]), 87.6%; in experiment [1] (setting [8]), 93.2%; in experiment [1] (compound 1μM, relative to DMSO controls, read-out: % Enzyme activity at 1μM), 90.4%; in experiment [2] (setting [6]) it was 104%; in experiment [2] (setting [7]) it was 106%. The remaining activity at 1 µM in experiment [2] (setting [8]) is 103%; in experiment [3] (setting [6]), 107%; in experiment [3] (setting [7]), 111%; in experiment [3] (setting [8]), 102%; in experiment [4] (setting [6]), 92.6%; in experiment [4] (setting [7]), 95.6%. For the same compound, the remaining activity at 1 µM in experiment [4] (setting [8]) amounted to 89.7%; in experiment [5] (setting [6]), 116%; in experiment [5] (setting [7]), 118%; in experiment [5] (setting [8]), 115%. Also, the remaining activity at 10 µM in experiment [1] (setting [9]) worked out at 49.9%; in experiment [1] (setting [10]) it was 47.2%; in experiment [1] (setting [11]), 52.5%; in experiment [1] (compound 10μM, relative to DMSO controls, read-out: % Enzyme activity at 10μM) it was 49.9%; in experiment [2] (setting [9]) it was 99%; in experiment [2] (setting [10]), 103%. Moreover, the remaining activity at 10 µM in experiment [2] (setting [11]) is 95%; in experiment [3] (setting [12]), 109%; in experiment [3] (setting [13]), 113%; in experiment [3] (setting [14]), 105%; in experiment [4] (setting [9]) it was 87.3%; in experiment [4] (setting [10]), 89%. The remaining activity at 10 µM in experiment [4] (setting [11]) turned out to be 85.7%; in experiment [5] (setting [9]), 88.7%; in experiment [5] (setting [10]), 98.3%; in experiment [5] (setting [11]), 79.2%.

These data come from PMC7252619 (PLoS ONE, 2020).
